Counter-ions that a name gives are not always drawn.

The test system of data set [1] is sputum macrophages from COPD patients. Put plainly: Cytokine production in LPS-treated sputum macrophages from COPD patients. The following applies: Homo sapiens, Macrophage; at 0.1 μg/mL; LPS 1 μg/mL, 18 h; read-out: Percent Inhibition IL-6. The data set is classed as cell-based. The protocol:
Patients with COPD inhaled a nebulised solution of 3% (w/v) hypertonic saline using an ultrasonic nebuliser (Devilbiss, Carthage, Mo.) with tidal breathing for 5 min. This procedure was repeated a maximum of three times until enough sputum was obtained. The sputum samples were homogenized and mixed vigorously using a vortex mixer in 0.02% v/v dithiothreitol (DTT) solution. The samples were re-suspended in PBS (40 mL) followed by centrifugation at 1500 rpm at 4° C. for 10 min to obtain sputum cell pellets. The pellets were washed with PBS (40 mL). […]
Where appropriate, 1 μL of a solution containing either the test compound or reference article at the stated concentrations (either 0.1 μg/mL, 0.01 μg/mL, or 0.001 μg/mL) or alternatively 1 μL of DMSO as the vehicle control was added to each well (200 μL in media) and the cells were incubated for 2 h. […] After washing with 200 μL wash buffer per well, the beads were resuspended in sheath fluid (150 μL) and analyzed immediately. The level of each analyte in the supernatant was calculated using Xcel Fit software with a 4 or 5-parameter equation using each standard curve. The inhibitions of each cytokine production were calculated at each concentration by comparison with vehicle control.

A short description of data set [2]: Dynamic vapour sorption (DVS). The data set is classed as physicochemical. As to conditions: 25° C., RH 0-95%. On the procedure:
About 20 mg of test compound was transferred into a SMS dynamic vapor sorption and record the weight change with respect to the atmospheric humidity at 25° C.
The following parameters were used:
drying: 60 min. under dry nitrogen
equilibrium: 60 min/Step.

Data set [3] is described as follows: Chemical stability testing, degradation by UPLC. The format is physicochemical. As to conditions: stored up to 30 days, 50-80° C./10-75% RH; data not shown. On the procedure:
Samples were extracted with solvent mixture (DMSO/water 80:20) (7 mL) in a 10 mL vial.
UPLC chromatography was performed using the following parameters:
Analysis run time: 36 min Data collection time: 30 min Injection volume: 5 μL Wavelength: scan between 200 and 400 nm Wavelength used for content uniformity calculations: 334.0 nm
The compositions of Examples 4d, 4e, 4f, 4g, 4h and 4i were stored for 14 and 30 days under conditions of 50° C./75% RH, 60° C./30% RH, 60° C./50% RH, 70° C./10% RH, 70° C./75% RH and 80° C./50% RH.

In a further data set the test system is BEAS2B cells. Nature of the data set: Poly I:C-induced ICAM-1 expression in BEAS2B cells. The format is cell-based. As to conditions: Homo sapiens, BEAS-2B, 18 h after poly I:C transfection, read-out: PolyIC/ICAM1 IC50 (BEAS2B). On the procedure: Poly I:C was used in these studies as a simple, RNA virus mimic. Poly I:C-Oligofectamine mixture (2% Oligofectamine±1 μg/mL Poly I:C, 25 μL; Life Technologies and Invivogen Ltd., San Diego, Calif., respectively) was transfected into BEAS2B cells (human bronchial epithelial cells, ATCC). Cells were pre-incubated with final concentrations of test compounds for 2 h and the level of ICAM-1 expression on the cell surface was determined by cell-based ELISA. […]
The cells were washed with PBS-Tween (3×200 μL) and incubated with the secondary antibody (100 μL; HRP-conjugated anti-rabbit IgG, Dako Ltd., Glostrup, Denmark). […] The ICAM-1 signal was detected by reading the absorbance at 450 nm against a reference wavelength of 655 nm using a spectrophotometer. The cells were then washed with PBS-Tween (3×200 μL) and total cell numbers in each well were determined by reading absorbance at 595 nm after Crystal Violet staining (50 μL of a 2% solution in PBS) and elution by 1% SDS solution (100 μL) in PBS. The measured OD 450-655 readings were corrected for cell number by dividing with the OD595 reading in each well. The inhibition of ICAM-1 expression was calculated at each concentration of test compound by comparison with vehicle control.

Consider `CCC(=O)O[C@]1(C(=O)SCF)[C@H](C)C[C@H]2[C@@H]3C[C@H](F)C4=CC(=O)C=C[C@]4(C)[C@@]3(F)[C@@H](O)C[C@@]21C` [Fluticasone propionate, fluticasone propionate, reference compound], for which the inhibition at 0.1 µg/mL in data set [1] was found to be 29 ± 21%.
In the case of `CCc1cncc(Nc2cc(COc3ccc(NC(=O)Nc4cc(C(C)(C)C)nn4-c4ccc(C)cc4)c4ccccc34)ccn2)n1` [Example 2A, 1-(3-(tert-butyl)-1-(p-tolyl)-1H-pyrazol-5-yl)-3-(4-((2-((6-ethylpyrazin-2-yl)amino)pyridin-4-yl)methoxy)naphthalen-1-yl)urea maleate (Form 2)], the entries for the “hygroscopicity (DVS)” value in data set [2] and in data set [2] (listed as Example 3B) were “does not appear to be hygroscopic” and “appeared not to be hygroscopic”, respectively. Further, in data set [3], the “percentage of total degradation, unmicronised and unblended material” value is given as “always lower than that for the free base”.
For `COCC(=O)Nc1cc(Oc2ccc(NC(=O)Nc3cc(C(C)(C)C)nn3-c3ccc(C)cc3)c3ccccc23)ccn1` [Reference Compound, N-(4-(4-(3-(3-tert-Butyl-1-p-tolyl-1H-pyrazol-5-yl)ureido)naphthalen-1-yloxy)pyridin-2-yl)-2-methoxyacetamide, reference compound], in the data set on BEAS2B cells, the IC50 amounted to 3.8 nM.

By inhibition is commonly meant the change of the read-out against control, counted positive when it falls.

The values are drawn from patent publication US10045980B2, “Inhibitor of p38 map kinase” (RESPIVERT LTD, priority 2014, dated 2018).
